Experimental findings from US5213797A, “A80407 antibiotics” (Eli Lilly and Company, priority 1990, dated 1993) are described below.

Bridge positions count the residues as written; N and C are the ends. Square brackets hold non-standard residues; d marks the D form. Peptide text beside a SMILES is read from it. * marks the point of attachment. Ileψ(thiazoline)Cys = CC[C@H](C)[C@H](N)C1=N[C@H](C(=O)*)CS1; dOrn = NCCC[C@@H](N)C(=O)O

Assay [1] concerns Kibdelosporangium philippinensis (cultures A80407 and A80407.4). In words: Resistance to antibiotics of the producing cultures, antibiotic sensitivity discs on seeded ISP No. 2 agar. The following applies: 10 units; both cultures.
The test system is the same in assay [2]. The experiment in a line: Lysozyme resistance of the producing cultures. It counts as cell-based. The note with it: both cultures. An excerpt:
Methods recommended by Gordon et.al. [R. E. Gordon, D. A. Barnett, J. E. Handerhan, and C. H. Pang, "Nocardia coeliaca, Nocardia autotrophica, and the Nocardin Strain," Int. J. Syst. Bacteriol. 24, (1), 54-63 (1974)] were followed for the majority of physiological tests.

As to `CC[C@H](C)[C@H](N)C1=N[C@H](C(=O)N[C@@H](CC(C)C)C(=O)N[C@H](CCC(=O)O)C(=O)N[C@H](C(=O)N[C@H]2CCCCNC(=O)[C@H](CC(N)=O)NC(=O)[C@@H](CC(=O)O)NC(=O)[C@H](Cc3cnc[nH]3)NC(=O)[C@@H](Cc3ccccc3)NC(=O)[C@H]([C@@H](C)CC)NC(=O)[C@@H](CCCN)NC2=O)[C@@H](C)CC)CS1` [bacitracin] ({Ileψ(thiazoline)Cys}-L[dE]IK[dOrn]I[dF]H[dD]N; lactam 4-C), in assay [1], the Resistance to antibiotics entry is reported as “sensitive”.
On to lysozyme, for which the Resistance to lysozyme result in assay [2] is “Neither culture was resistant”.
